“And” between values parts separate entries of the source, which are not always exact repeats. Identical values can stand only once.
Test system: 521955-158-R2-J5-PDC spheroids with stroma, growth inhibition
Assay: Anticancer human tumor 521955-158-R2-J5-PDC patient-derived pancreatic carcinoma cell line growth inhibition [TAK]
Conditions: for viability, T/C: stronger effect = lower value
From the text: Combinatorial screen of targeted agents with TAK-243 and ipatasertib in multi-cell type tumor spheroids
A high-throughput screen of multi-cell type tumor spheroids was designed to identify active combinations of targeted small molecules and TAK-243 or ipatasertib. Complex spheroids include a stromal component modeled by human endothelial cells (HUVEC) and fibroblasts modeled by human mesenchymal stem cells (MSCs). The concentration ranges selected for each drug and investigational agent were based upon clinically achievable concentrations if the clinical Cmax of the agent was known.
Compounds. The drugs and investigational agents: TAK-243 (785004), ipatasertib (767898), everolimus (733504), selumetinib (741078), bortezomib (756655), trametinib (758246), ixazomib (758254), vemurafenib (761431), dabrafenib (764134), sapanisertib (764658), alpelisib (765974), and copanlisib (816437), were obtained from the National Cancer Institute (NCI) Developmental Therapeutics Program Chemical Repository. The FDA-approved anticancer drug set is available from the NCI Developmental Therapeutics Program. […] The stock solutions were prepared in dimethyl sulfoxide (DMSO, Sigma-Aldrich, St. Louis, MO, cat. D2650) at 800-fold the tested concentration and stored at -70 degrees C prior to their use. All drugs and investigational agents were tested over a range starting from a high concentration at or near the clinical Cmax and decreasing in half-log increments. If the clinical Cmax for an agent had not been determined, the highest concentration tested was 10 microM.
NCI60 Cell Culture. NCI60 cell lines were obtained from the NCI Developmental Therapeutics Program Tumor Repository. For each lot of cells, the Repository performed Applied Biosystems AmpFLSTR Identifiler testing with PCR amplification to confirm consistency with the published Identifier STR profile for each cell line. Cells were kept in continuous culture for no more than 20 passages. The optimal seeding densities for each of the cell lines at each time point assessed were determined prior to performing the concentration response studies. Briefly, the NCI60 human tumor lines were grown as monolayers in RPMI 1640 medium supplemented with 10% FBS and 2 mmol/L L-glutamine.
An additional 2 lines were from the NCI60 cell line panel including melanomas, MALME-3M and SK-MEL-2. Pooled donor human umbilical vein endothelial cells (HUVEC, Lonza, cat. CC-2519) and human mesenchymal stem cells (hMSC, Lonza, cat. PT-2501) were purchased from Lonza (Walkersville, MD).
PDMR cell lines were grown in complete medium (DC medium): Dulbecco's modified Eagle's medium (DMEM)/F12 supplemented with 5% fetal bovine serum (FBS), 2 mM L-glutamine, 100 U/mL penicillin and 100 µg/ml streptomycin, 0.4 µg/ml hydrocortisone, 10 ng/ml epidermal growth factor (EGF) recombinant human protein, 24 µg/mL adenine, and 0.1 mg/mL primocin. During culture from frozen stock vials, PDMR cells were cultured in the same medium containing 10 µM Y-27632 (see Table 3). The PDCs were cultured in complete DMEM/F12 media without 10 microM Y-27632 dihydrochloride for at least two passages prior to the screen. The pooled donor HUVEC and hMSC were cultured in endothelial cell growth medium 2 (PromoCell, Heidelberg, Germany, cat. C-22011) and mesenchymal stem cell growth medium 2 (PromoCell, cat. C-28009), respectively. For all experiments, HUVEC and hMSC were used at passages </=5.
For the pre-screen, cell seeding densities were determined from a titration spanning the range from 5,000 to 313 cells per well. The mct-spheroids including 60% malignant cells, 25% HUVEC and 15% MSC dispensed as a mixture into U-bottom Ultra-Low Attachment 384-well plates (Corning, NY)
High-throughput Drug Combination Screening.
Prior to their inoculation into 384-well plates, malignant cells, HUVEC, and hMSC were removed from T flasks using TrypLE express (Thermo Fisher Scientific, cat. 12605036) and harvested by centrifugation for 5 min at 233 x g. […]

[1] = curve of first compound, second compound 0.3 µM
[2] = curve of first compound, second compound 0.949 µM
[3] = curve of first compound, second compound 3 µM
[4] = curve of first compound, second compound 9.49 µM
[5] = curve of first compound, second compound 30 µM
[6] = second compound 0.3 µM, first compound 0.000316 µM
[7] = second compound 0.3 µM, first compound 0.001 µM
[8] = second compound 0.3 µM, first compound 0.00316 µM
[9] = second compound 0.3 µM, first compound 0.01 µM
[10] = second compound 0.3 µM, first compound 0.0316 µM
[11] = second compound 0.3 µM, first compound 0.1 µM
[12] = second compound 0.949 µM, first compound 0.000316 µM
[13] = second compound 0.949 µM, first compound 0.001 µM
[14] = second compound 0.949 µM, first compound 0.00316 µM
[15] = second compound 0.949 µM, first compound 0.01 µM
[16] = second compound 0.949 µM, first compound 0.0316 µM
[17] = second compound 0.949 µM, first compound 0.1 µM
[18] = second compound 3 µM, first compound 0.000316 µM
[19] = second compound 3 µM, first compound 0.001 µM
[20] = second compound 3 µM, first compound 0.00316 µM
[21] = second compound 3 µM, first compound 0.01 µM
[22] = second compound 3 µM, first compound 0.0316 µM
[23] = second compound 3 µM, first compound 0.1 µM
[24] = second compound 9.49 µM, first compound 0.000316 µM
[25] = second compound 9.49 µM, first compound 0.001 µM
[26] = second compound 9.49 µM, first compound 0.00316 µM
[27] = second compound 9.49 µM, first compound 0.01 µM
[28] = second compound 9.49 µM, first compound 0.0316 µM
[29] = second compound 9.49 µM, first compound 0.1 µM
[30] = second compound 30 µM, first compound 0.000316 µM
[31] = second compound 30 µM, first compound 0.001 µM
[32] = second compound 30 µM, first compound 0.00316 µM
[33] = second compound 30 µM, first compound 0.01 µM
[34] = second compound 30 µM, first compound 0.0316 µM
[35] = second compound 30 µM, first compound 0.1 µM
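Also: spheroids exposed to drugs for seven days before readout.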
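For viability, T/C in this document: 100% = DMSO vehicle control viability.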

`CC(C)n1nc(-c2ccc3oc(N)nc3c2)c2c(N)ncnc21` + CC(C)NCC(C(=O)N1CCN(c2ncnc3c2C(C)CC3O)CC1)c1ccc(Cl)cc1 showed an IC50 [1] of 32 nM, an IC50 [2] of 34.9 nM and an IC50 [3] of 17.7 nM. For the same compound, the IC50 [4] was 8.6 nM, the IC50 [5] was 0.516 nM and the viability, T/C [6] was 106%. For the same compound, the viability, T/C [7] was 96.9%, the viability, T/C [8] was 85% and the viability, T/C [9] was 60.4%. For the same compound, the viability, T/C [10] was 54.8%, the viability, T/C [11] was 36.5% and the viability, T/C [12] was 78.3%. It also gave a viability, T/C [13] of 69.3%, a viability, T/C [14] of 65.7% and a viability, T/C [15] of 66.9%. For the same compound, the viability, T/C [16] was 49.6%, the viability, T/C [17] was 36% and the viability, T/C [18] was 83.5%. The viability, T/C [19] was 77.8%, the viability, T/C [20] was 84.8% and the viability, T/C [21] was 62.3%. The viability, T/C [22] was 37.6%, the viability, T/C [23] was 28.2% and the viability, T/C [24] was 110%. For the same compound, the viability, T/C [25] was 102%, the viability, T/C [26] was 79.2% and the viability, T/C [27] was 44.2%. It also gave a viability, T/C [28] of 29.1%, a viability, T/C [29] of 19.3% and a viability, T/C [30] of 52.1%. For the same compound, the viability, T/C [31] was 47.1%, the viability, T/C [32] was 37.5% and the viability, T/C [33] was 17.1%. The viability, T/C [34] was 10.4% and the viability, T/C [35] was 9.55%.
In the case of `CCCS(=O)(=O)Nc1ccc(F)c(C(=O)c2c[nH]c3ncc(-c4ccc(Cl)cc4)cc23)c1F`, the viability, T/C (compound 0.316 µM) is reported as 77.5% and 89.5%, the viability, T/C (compound 1 µM) is reported as 89% and 87.9% and the viability, T/C (compound 3.16 µM) is reported as 132% and 116%. For the same compound, the viability, T/C (compound 10 µM) was 149% and 164%, the viability, T/C (compound 31.6 µM) was 165% and 24.2% and the viability, T/C (compound 100 µM) was 187% and 232%. The IC50 (curve of compound) was over 100000 nM.
`CC(C)CC(NC(=O)CNC(=O)c1cc(Cl)ccc1Cl)B1OC(=O)CC(CC(=O)O)(C(=O)O)O1` (centres undefined) + CC(C)NCC(C(=O)N1CCN(c2ncnc3c2C(C)CC3O)CC1)c1ccc(Cl)cc1 gave an IC50 [1] of 39 nM, an IC50 [2] of 30 nM and an IC50 [3] of 26.8 nM. The IC50 [4] was 25.7 nM, the IC50 [5] was 15.2 nM and the viability, T/C [6] was 129%. For the same compound, the viability, T/C [7] was 114%, the viability, T/C [8] was 104% and the viability, T/C [9] was 116%. For the same compound, the viability, T/C [10] was 59%, the viability, T/C [11] was 8.82% and the viability, T/C [12] was 85.2%. For the same compound, the viability, T/C [13] was 98.6%, the viability, T/C [14] was 87.6% and the viability, T/C [15] was 94.2%. For the same compound, the viability, T/C [16] was 48.1%, the viability, T/C [17] was 6.65% and the viability, T/C [18] was 77.8%. For the same compound, the viability, T/C [19] was 78%, the viability, T/C [20] was 87% and the viability, T/C [21] was 89.6%. The viability, T/C [22] was 44.4%, the viability, T/C [23] was 6.08% and the viability, T/C [24] was 123%. The viability, T/C [25] was 103%, the viability, T/C [26] was 115% and the viability, T/C [27] was 122%. It also gave a viability, T/C [28] of 35.7%, a viability, T/C [29] of 4.11% and a viability, T/C [30] of 69.3%. The viability, T/C [31] was 69.1%, the viability, T/C [32] was 72.4% and the viability, T/C [33] was 66.4%. It also gave a viability, T/C [34] of 21.3% and a viability, T/C [35] of 2.31%.
With `CC(=O)Nc1cccc(-n2c(=O)n(C3CC3)c(=O)c3c(Nc4ccc(I)cc4F)n(C)c(=O)c(C)c32)c1` the viability, T/C (compound 94.9 pM) was 104% and 87%, the viability, T/C (compound 0.0003 µM) was 79.1% and 65.4% and the viability, T/C (compound 0.000949 µM) was 52% and 51.3%. For the same compound, the viability, T/C (compound 0.003 µM) was 48.2% and 48.1%, the viability, T/C (compound 0.00949 µM) was 38.6% and 39.5% and the viability, T/C (compound 0.03 µM) was 27.5% and 24.4%. For the same compound, the IC50 (curve of compound) was 1.87 nM and 1.69 nM.
With `CCCS(=O)(=O)Nc1ccc(F)c(C(=O)c2c[nH]c3ncc(-c4ccc(Cl)cc4)cc23)c1F` + CC(C)NCC(C(=O)N1CCN(c2ncnc3c2C(C)CC3O)CC1)c1ccc(Cl)cc1 the IC50 [1] was over 100000 nM, the IC50 [2] was over 100000 nM and the IC50 [3] was 15900 nM. It also gave an IC50 [4] of 6340 nM, an IC50 [5] of 1140 nM and a viability, T/C (second compound 0.3 µM, first compound 0.316 µM) of 107%. It also gave a viability, T/C (second compound 0.3 µM, first compound 1 µM) of 134%, a viability, T/C (second compound 0.3 µM, first compound 3.16 µM) of 108% and a viability, T/C (second compound 0.3 µM, first compound 10 µM) of 165%. It also gave a viability, T/C (second compound 0.3 µM, first compound 31.6 µM) of 18.9%, a viability, T/C (second compound 0.3 µM, first compound 100 µM) of 122% and a viability, T/C (second compound 0.949 µM, first compound 0.316 µM) of 108%. For the same compound, the viability, T/C (second compound 0.949 µM, first compound 1 µM) was 123%, the viability, T/C (second compound 0.949 µM, first compound 3.16 µM) was 107% and the viability, T/C (second compound 0.949 µM, first compound 10 µM) was 103%. The viability, T/C (second compound 0.949 µM, first compound 31.6 µM) was 22.2%, the viability, T/C (second compound 0.949 µM, first compound 100 µM) was 111% and the viability, T/C (second compound 3 µM, first compound 0.316 µM) was 100%. For the same compound, the viability, T/C (second compound 3 µM, first compound 1 µM) was 99.4%, the viability, T/C (second compound 3 µM, first compound 3.16 µM) was 99.2% and the viability, T/C (second compound 3 µM, first compound 10 µM) was 70.1%. The viability, T/C (second compound 3 µM, first compound 31.6 µM) was 19.9%, the viability, T/C (second compound 3 µM, first compound 100 µM) was 12.1% and the viability, T/C (second compound 9.49 µM, first compound 0.316 µM) was 84.8%. For the same compound, the viability, T/C (second compound 9.49 µM, first compound 1 µM) was 89.8%, the viability, T/C (second compound 9.49 µM, first compound 3.16 µM) was 69.9% and the viability, T/C (second compound 9.49 µM, first compound 10 µM) was 36.1%. The viability, T/C (second compound 9.49 µM, first compound 31.6 µM) was 14.2%, the viability, T/C (second compound 9.49 µM, first compound 100 µM) was 6.73% and the viability, T/C (second compound 30 µM, first compound 0.316 µM) was 51.7%. The viability, T/C (second compound 30 µM, first compound 1 µM) was 50.9%, the viability, T/C (second compound 30 µM, first compound 3.16 µM) was 40.4% and the viability, T/C (second compound 30 µM, first compound 10 µM) was 5.79%. The viability, T/C (second compound 30 µM, first compound 31.6 µM) was 4.82% and the viability, T/C (second compound 30 µM, first compound 100 µM) was 4.7%.

Reference: PubChem BioAssay AID2060353 (Molecular Pharmacology Branch, DTP, NCI, 2025)
